Experimental data from PubChem BioAssay AID248 (DTP/NCI, 2004).
“And” between values parts separate entries of the source, which are not always exact repeats. Equal values may be shown once. Inconclusive results and toxic doses are left out. Cut-off read from the data, not from the text of the source: active = T/C of 150% or more; inactive = T/C below 125%.

Test system: L1210 leukemia ip in BDF1 mice, survival T/C
Assay: NCI In Vivo Anticancer Drug Screen. Data for tumor model L1210 Leukemia (intraperitoneal) in B6D2F1 (BDF1) mice
Conditions: endpoint: mean survival time, higher = longer survival
Method in brief: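 Ratio derived from survival: compound-dosed mice over vehicle-dosed mice, all bearing a transplantable tumor.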

[1] = dose: 100.0 mg/kg/injection, schedule: Q01DX009 (ip), vehicle: saline with Tween-80
[2] = dose: 75.0 mg/kg/injection, schedule: Q01DX001 (ip), vehicle: saline with Tween-80
[3] = dose: 100.0 mg/kg/injection, schedule: Q01DX001 (ip), vehicle: other
[4] = dose: 200.0 mg/kg/injection, schedule: Q01DX001 (ip), vehicle: other
[5] = dose: 400.0 mg/kg/injection, schedule: Q01DX001 (ip), vehicle: other
[6] = dose: 100.0 mg/kg/injection, schedule: Q01DX009 (ip), vehicle: Klucel (hydroxypropylcellulose) (HPC)
[7] = dose: 100.0 mg/kg/injection, schedule: Q04DX003 (ip), vehicle: Klucel (hydroxypropylcellulose) (HPC)
[8] = dose: 200.0 mg/kg/injection, schedule: Q01DX009 (ip), vehicle: Klucel (hydroxypropylcellulose) (HPC)
[9] = dose: 200.0 mg/kg/injection, schedule: Q04DX003 (ip), vehicle: Klucel (hydroxypropylcellulose) (HPC)
[10] = dose: 400.0 mg/kg/injection, schedule: Q01DX009 (ip), vehicle: Klucel (hydroxypropylcellulose) (HPC)
[11] = dose: 400.0 mg/kg/injection, schedule: Q04DX003 (ip), vehicle: Klucel (hydroxypropylcellulose) (HPC)
[12] = dose: 100.0 mg/kg/injection, schedule: Q01DX001 (ip), vehicle: carboxymethylcellulose (CMC)
[13] = dose: 200.0 mg/kg/injection, schedule: Q01DX001 (ip), vehicle: carboxymethylcellulose (CMC)
[14] = dose: 400.0 mg/kg/injection, schedule: Q01DX001 (ip), vehicle: carboxymethylcellulose (CMC)
[15] = dose: 12.5 mg/kg/injection, schedule: Q01DX009 (ip), vehicle: saline
[16] = dose: 25.0 mg/kg/injection, schedule: Q01DX009 (ip), vehicle: saline

Measured: T/C

Cc1ccc(C#N)cc1.Cc1ccc(C#N)cc1.[Cl][Pt][Cl]
inactive: dose: 6.25 mg/kg/injection, schedule: Q04DX003 (ip), vehicle: water 109 % of control | dose: 12.5 mg/kg/injection, schedule: Q04DX003 (ip), vehicle: water 109 % of control | dose: 25.0 mg/kg/injection, schedule: Q04DX003 (ip), vehicle: water 106 % of control | dose: 50.0 mg/kg/injection, schedule: Q04DX003 (ip), vehicle: water 105 % of control

COC(=O)c1ccc(-c2cc(Cl)c3cc(S(=O)(=O)F)ccc3n2)cc1
inactive: [1] 94 % of control | dose: 200.0 mg/kg/injection, schedule: Q01DX009 (ip), vehicle: saline with Tween-80 100 % of control | dose: 400.0 mg/kg/injection, schedule: Q01DX009 (ip), vehicle: saline with Tween-80 95 % of control

COc1nc(-c2ccccc2)cn[n+]1C
inactive: dose: 33.0 mg/kg/injection, schedule: Q01DX001 (ip), vehicle: saline with Tween-80 103 % of control | dose: 50.0 mg/kg/injection, schedule: Q01DX001 (ip), vehicle: saline with Tween-80 107 % of control | [2] 113 % of control

CCOC(=O)CNC(=O)C1OC(n2cnc3c(N)ncnc32)C2OC(C)(C)OC12 (configuration not stated)
inactive: dose: 100.0 mg/kg/injection, schedule: Q01DX005 (ip), vehicle: saline 95 % of control | dose: 200.0 mg/kg/injection, schedule: Q01DX005 (ip), vehicle: saline 92 % of control

N#CC1C=CCC1 (configuration not stated)
inactive: dose: 50.0 mg/kg/injection, schedule: Q01DX009 (ip), vehicle: saline with Tween-80 100 % of control | [1] 100 % of control

CCOC(=O)CC(C[N+](=O)[O-])C(F)(F)F (configuration not stated)
inactive: [3] 103 % of control | [4] 97 % of control | [5] 103 % of control

O=C(O)NNC(=O)NO
inactive: dose: 100.0 mg/kg/injection, schedule: Q01DX001 (ip), vehicle: saline with Tween-80 94 % of control | dose: 200.0 mg/kg/injection, schedule: Q01DX001 (ip), vehicle: saline with Tween-80 94 % of control | dose: 400.0 mg/kg/injection, schedule: Q01DX001 (ip), vehicle: saline with Tween-80 92 % of control

Cc1ccc(NC(=O)OCCCl)c([N+](=O)[O-])c1
inactive: dose: 100.0 mg/kg/injection, schedule: Q01DX001 (ip), vehicle: Klucel (hydroxypropylcellulose) (HPC) 106 % of control | [6] 96 % of control and 100 % of control | dose: 100.0 mg/kg/injection, schedule: Q04DX002 (ip), vehicle: Klucel (hydroxypropylcellulose) (HPC) 97 % of control and 102 % of control | [7] 98 % of control | dose: 200.0 mg/kg/injection, schedule: Q01DX001 (ip), vehicle: Klucel (hydroxypropylcellulose) (HPC) 101 % of control | [8] 94 % of control and 111 % of control | dose: 200.0 mg/kg/injection, schedule: Q04DX002 (ip), vehicle: Klucel (hydroxypropylcellulose) (HPC) 96 % of control and 97 % of control | [9] 93 % of control | dose: 400.0 mg/kg/injection, schedule: Q01DX001 (ip), vehicle: Klucel (hydroxypropylcellulose) (HPC) 98 % of control | [10] 94 % of control and 91 % of control | dose: 400.0 mg/kg/injection, schedule: Q04DX002 (ip), vehicle: Klucel (hydroxypropylcellulose) (HPC) 97 % of control and 98 % of control | [11] 111 % of control

Cc1ccccc1OCc1nc(-c2ccc(N(CCCl)CCCl)cc2)cs1
inactive: [12] 101 % of control | [13] 113 % of control | [14] 104 % of control

CC(S(C)(=O)=O)(S(C)(=O)=O)S(C)(=O)=O
inactive: [2] 96 % of control | dose: 150.0 mg/kg/injection, schedule: Q01DX001 (ip), vehicle: saline with Tween-80 96 % of control | dose: 300.0 mg/kg/injection, schedule: Q01DX001 (ip), vehicle: saline with Tween-80 107 % of control

N=C(N)c1ccc(OCCCCOc2ccc(N)cc2Cl)cc1
inactive: dose: 50.0 mg/kg/injection, schedule: Q01DX009 (ip), vehicle: Klucel (hydroxypropylcellulose) (HPC) 111 % of control | [6] 97 % of control

CC1(C)Cc2cccc(OC(N)=O)c2O1
inactive: dose: 1.56 mg/kg/injection, schedule: Q04DX003 (ip), vehicle: Klucel (hydroxypropylcellulose) (HPC) 94 % of control | dose: 3.13 mg/kg/injection, schedule: Q04DX003 (ip), vehicle: Klucel (hydroxypropylcellulose) (HPC) 103 % of control | dose: 6.25 mg/kg/injection, schedule: Q04DX003 (ip), vehicle: Klucel (hydroxypropylcellulose) (HPC) 104 % of control

CCC(Sc1ccccc1[N+](=O)[O-])[N+](=O)[O-] (configuration not stated)
inactive: [7] 105 % of control | [9] 95 % of control | [11] 100 % of control

N#CCC(=O)O
inactive: dose: 18.75 mg/kg/injection, schedule: Q01DX009 (ip), vehicle: saline 98 % of control | dose: 37.5 mg/kg/injection, schedule: Q01DX009 (ip), vehicle: saline 95 % of control | dose: 75.0 mg/kg/injection, schedule: Q01DX009 (ip), vehicle: saline 90 % of control

COc1ccc(-c2nc(N)ncc2CSC)cc1
inactive: dose: 100.0 mg/kg/injection, schedule: Q04DX003 (ip), vehicle: saline with Tween-80 101 % of control | dose: 200.0 mg/kg/injection, schedule: Q04DX003 (ip), vehicle: saline with Tween-80 86 % of control

NNC(=O)c1ccccc1
inactive: [15] 100 % of control | [16] 97 % of control | dose: 50.0 mg/kg/injection, schedule: Q01DX001 (ip), vehicle: saline 90 % of control | dose: 50.0 mg/kg/injection, schedule: Q01DX009 (ip), vehicle: saline 111 % of control | dose: 50.0 mg/kg/injection, schedule: Q04DX003 (ip), vehicle: saline with Tween-80 97 % of control | dose: 100.0 mg/kg/injection, schedule: Q01DX001 (ip), vehicle: saline 108 % of control | dose: 100.0 mg/kg/injection, schedule: Q01DX009 (ip), vehicle: saline 100 % of control

CCOC(=O)CSCn1ncc2ccc([N+](=O)[O-])cc21
inactive: [3] 95 % of control | [4] 95 % of control | [5] 97 % of control

CC(=O)OC12CC[N+]3(C)CCCCC3C1=Nc1ccccc12 (configuration not stated)
inactive: dose: 6.25 mg/kg/injection, schedule: Q01DX009 (ip), vehicle: saline 98 % of control | dose: 10.0 mg/kg/injection, schedule: Q01DX001 (ip), vehicle: carboxymethylcellulose (CMC) 102 % of control | [15] 102 % of control | dose: 20.0 mg/kg/injection, schedule: Q01DX001 (ip), vehicle: carboxymethylcellulose (CMC) 105 % of control | [16] 102 % of control | dose: 25.0 mg/kg/injection, schedule: Q04DX003 (ip), vehicle: saline 103 % of control | dose: 40.0 mg/kg/injection, schedule: Q01DX001 (ip), vehicle: carboxymethylcellulose (CMC) 100 % of control | dose: 80.0 mg/kg/injection, schedule: Q01DX001 (ip), vehicle: carboxymethylcellulose (CMC) 102 % of control

OC(COC(c1ccccc1)(c1ccccc1)c1ccccc1)C(O)CC1SCCS1 (configuration not stated)
inactive: dose: 50.0 mg/kg/injection, schedule: Q01DX001 (ip), vehicle: carboxymethylcellulose (CMC) 105 % of control | [12] 105 % of control | [13] 94 % of control | [14] 100 % of control

Cn1c(=O)c2c(nc(N/N=C/c3ccc(O)cc3)n2C)n(C)c1=O
inactive: dose: 44.0 mg/kg/injection, schedule: Q01DX Z (ip), vehicle: methylcellulose (MC) 94 % of control | dose: 66.0 mg/kg/injection, schedule: Q01DX Z (ip), vehicle: methylcellulose (MC) 97 % of control | dose: 100.0 mg/kg/injection, schedule: Q01DX Z (ip), vehicle: methylcellulose (MC) 96 % of control

C[n+]1cccc2cccc(C(=O)O)c21
inactive: dose: 75.0 mg/kg/injection, schedule: Q01DX001 (ip), vehicle: saline 100 % of control | dose: 150.0 mg/kg/injection, schedule: Q01DX001 (ip), vehicle: saline 94 % of control

CCOC(=O)C(C)(C)C(C)=O
inactive: [6] 99 % of control | [7] 103 % of control | [8] 99 % of control | [9] 103 % of control | [10] 95 % of control | [11] 97 % of control

O=S(=O)(O)c1cccc2cccc(N=Nc3ccc(O)cc3)c12
inactive: [3] 94 % of control | [4] 103 % of control | [5] 94 % of control
